Values quoted from earlier work in US7582301B1, “Long-lasting antiviral fusion inhibitor peptide conjugates comprising albumin and human immunodeficiency virus (HIV) peptides” (Conjuchem Biotechnologies, Inc., priority 2000, dated 2009).

Test system: respiratory syncytial virus (RSV)
Conditions: RSV-infected and uninfected Hep-2 cells

| Substance | concentration inhibiting fusion and syncytia formation |
| --- | --- |
| IALLSTNKAVVSLSNGVSVLTSKVLDLKNYIDK [SEQ ID NO:29, anti-RSV peptide from the F1 region of RSV] | less than 50 μg/ml |

Same assay, conditions: result in words; RSV-infected and uninfected Hep-2 cells

| Substance | inhibition of viral infection of RSV, including fusion and syncytia formation |
| --- | --- |
| IALLSTNKAVVSLSNGVSVLTSKVLDLKNYIDK [SEQ ID NO:29, anti-RSV peptide from the F1 region of RSV] | inhibits viral infection |
| TSVITIELSNIKENKCNGAKVKLIKQELDKYKN (TSVITIELSNIKENKCNGDAKVKLIKQELDKYKN) [SEQ ID NO:15, anti-RSV peptide from the F2 region of RSV] | inhibits viral infection |
| VITIELSNIKENKCNGAKVKLIKQELDKYKNAV (VITIELSNIKENKCNGDAKVKLIKQELDKYKNAV) [SEQ ID NO:16, anti-RSV peptide from the F2 region of RSV] | inhibits viral infection |
| YTSVITIELSNIKENKCNGAKVKLIKQELDKYK (YTSVITIELSNIKENKCNGDAKVKLIKQELDKYK) [SEQ ID NO:14, anti-RSV peptide from the F2 region of RSV] | inhibits viral infection |

Test system: HPIV-3
Conditions: HPIV-3-infected Hep2 cells and uninfected CV-1W cells

| Substance | concentration inhibiting fusion and syncytia formation |
| --- | --- |
| NSVALDPIDISIELNKAKSDLEESKEWIRRSNQKL (NNSVALDPIDISIELNKAKSDLEESKEWIRRSNQK) [SEQ ID NO:35, anti-HPIV-3 peptide, DP178-like] | less than 1 μg/ml |

Same assay, conditions: result in words; HPIV3-infected Hep2 cells and uninfected CV-1W cells

| Substance | inhibition of viral infection of HPIV3, including fusion and syncytia formation |
| --- | --- |
| ALDPIDISIELNKAKSDLEESKEWIRRSNQKLDSI (VALDPIDISIELNKAKSDLEESKEWIRRSNQKLDS) [SEQ ID NO:38, anti-HPIV-3 peptide, DP178-like] | inhibits viral infection |
| DPIDISIELNKAKSDLEESKEWIRRSNQKLDSIGN (LDPIDISIELNKAKSDLEESKEWIRRSNQKLDSIG) [SEQ ID NO:40, anti-HPIV-3 peptide, DP178-like] | inhibits viral infection |
| IDISIELNKAKSDLEESKEWIRRSNQKLDSIGNWH (PIDISIELNKAKSDLEESKEWIRRSNQKLDSIGNW) [SEQ ID NO:42, anti-HPIV-3 peptide, DP178-like] | inhibits viral infection |
| LDPIDISIELNKAKSDLEESKEWIRRSNQKLDSIG (ALDPIDISIELNKAKSDLEESKEWIRRSNQKLDSI) [SEQ ID NO:39, anti-HPIV-3 peptide, DP178-like] | inhibits viral infection |
| NSVALDPIDISIELNKAKSDLEESKEWIRRSNQKL (NNSVALDPIDISIELNKAKSDLEESKEWIRRSNQK) [SEQ ID NO:35, anti-HPIV-3 peptide, DP178-like] | inhibits viral infection |
| PIDISIELNKAKSDLEESKEWIRRSNQKLDSIGNW (DPIDISIELNKAKSDLEESKEWIRRSNQKLDSIGN) [SEQ ID NO:41, anti-HPIV-3 peptide, DP178-like] | inhibits viral infection |
| RSDIEKLKEAIRDTNKAVQSVQSSIGNLIVAIKSV [SEQ ID NO:58] | inhibits viral infection |
| VEAKQARSDIEKLKEAIRDTNKAVQSVQSSIGNLI [SEQ ID NO:52] | inhibits viral infection |

Test system: measles virus (MeV)
Conditions: result in words; MeV-infected and uninfected Vero cells

| Substance | inhibition of viral infection of MeV, including fusion and syncytia formation |
| --- | --- |
| HRIDLGPPISLERLDVGTNLGNAIAKLEAKELLE [SEQ ID NO:77] | inhibits viral infection |
| IDLGPPISLERLDVGTNLGNAIAKLEAKELLESS [SEQ ID NO:79] | inhibits viral infection |
| PISLERLDVGTNLGNAIAKLEAKELLESSDQILR [SEQ ID NO:84] | inhibits viral infection |

Test system: simian immunodeficiency virus (SIV)
Conditions: as crude peptides; result in words

| Substance | anti-SIV activity |
| --- | --- |
| DFLEENITALLEEAQIQQEKNMYELQKLNSWDVFG [SEQ ID NO:72] | potent antiviral activity |
| ERKVDFLEENITALLEEAQIQQEKNMYELQKLNSW [SEQ ID NO:68] | potent antiviral activity |
| EWERKVDFLEENITALLEEAQIQQEKNMYELQKLN [SEQ ID NO:66] | potent antiviral activity |
| FLEENITALLEEAQIQQEKNMYELQKLNSWDVFGN [SEQ ID NO:73] | potent antiviral activity |
| KVDFLEENITALLEEAQIQQEKNMYELQKLNSWDV [SEQ ID NO:70] | potent antiviral activity |
| QEWERKVDFLEENITALLEEAQIQQEKNMYELQKL [SEQ ID NO:65] | potent antiviral activity |
| RKVDFLEENITALLEEAQIQQEKNMYELQKLNSWD [SEQ ID NO:69] | potent antiviral activity |
| VDFLEENITALLEEAQIQQEKNMYELQKLNSWDVF [SEQ ID NO:71] | potent antiviral activity |
| WERKVDFLEENITALLEEAQIQQEKNMYELQKLNS [SEQ ID NO:67] | potent antiviral activity |
| WQEWERKVDFLEENITALLEEAQIQQEKNMYELQK [SEQ ID NO:64] | potent antiviral activity |

Test system: not given
Conditions: result in words

| Substance | anti-viral activity |
| --- | --- |
| SEQ ID NO:8: analog peptide demonstrated to exhibit anti-viral activity; sequence not printed in the text (CGGNNLLRAIEAQQHLLQLTVWGIKQLQARILAVERYLKDQ) | exhibit anti-viral activity |

Test system: HIV-1
Conditions: result in words; listed as DP-107

| Substance | anti-HIV-1 activity (inhibition of HIV-1 infection and fusion) |
| --- | --- |
| NNLLRAIEAQQHLLQLTVWQIKQLQARILAVERYLKDQ [DP107] | potent inhibitors |

Same assay, conditions: result in words; listed as DP-178

| Substance | anti-HIV-1 activity (inhibition of HIV-1 infection and fusion) |
| --- | --- |
| enfuvirtide | potent inhibitors |
